Patent US7473711B2, “Androgen modulators” (Pfizer Inc., priority 2004, dated 2009)
Positions count from the first letter of the chain named. Where two headings read alike, the source gives them in different places.

Columns and labels:
[1] = molecular target: T1, hAR (human androgen receptor) (Homo sapiens, UniProt P10275); test: Competitive binding analysis on hAR extracts with 3H-DHT tracer
T1 construct: made in house; host or cells: baculovirus/Sf9 insect cells (extract)
T1 sequence (P10275 1-920): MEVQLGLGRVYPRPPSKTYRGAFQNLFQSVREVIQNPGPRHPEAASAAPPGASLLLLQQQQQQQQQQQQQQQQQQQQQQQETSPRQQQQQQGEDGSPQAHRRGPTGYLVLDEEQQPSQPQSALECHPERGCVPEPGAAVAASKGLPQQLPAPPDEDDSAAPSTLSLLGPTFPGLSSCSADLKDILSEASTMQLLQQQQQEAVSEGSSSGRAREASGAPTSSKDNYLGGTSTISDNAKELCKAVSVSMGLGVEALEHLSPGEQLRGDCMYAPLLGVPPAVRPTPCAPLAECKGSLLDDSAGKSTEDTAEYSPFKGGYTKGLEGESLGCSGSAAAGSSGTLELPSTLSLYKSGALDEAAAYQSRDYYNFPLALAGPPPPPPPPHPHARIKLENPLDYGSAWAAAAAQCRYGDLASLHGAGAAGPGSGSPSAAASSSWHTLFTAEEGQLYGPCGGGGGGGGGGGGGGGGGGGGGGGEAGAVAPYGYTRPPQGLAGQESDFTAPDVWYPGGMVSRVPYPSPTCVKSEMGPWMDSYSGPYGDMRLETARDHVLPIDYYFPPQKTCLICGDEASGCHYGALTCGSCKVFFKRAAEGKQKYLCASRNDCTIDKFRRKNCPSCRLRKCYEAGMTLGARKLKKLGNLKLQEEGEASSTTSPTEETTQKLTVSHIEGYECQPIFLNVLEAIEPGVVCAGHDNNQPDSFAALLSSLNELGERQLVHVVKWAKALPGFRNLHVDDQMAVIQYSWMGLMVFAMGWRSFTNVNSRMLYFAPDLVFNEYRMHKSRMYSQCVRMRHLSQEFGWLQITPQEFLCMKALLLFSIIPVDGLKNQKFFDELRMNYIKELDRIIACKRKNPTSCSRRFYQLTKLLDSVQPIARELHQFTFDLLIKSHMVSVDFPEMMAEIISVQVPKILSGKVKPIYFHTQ
Method: The compounds of Formula I have affinity for the androgen receptor. […] The description below describes how the assay was carried out.
Competitive binding analysis was performed on baculovirus/Sf9 generated hAR extracts in the presence or absence of different concentrations of test agent and a fixed concentration of ^3H-dihydrotestosterone (^3H-DHT) as tracer. This binding assay method is a modification of a protocol previously described (Liao S., et. al. J. Steroid Biochem. 20:11-17 1984). Briefly, progressively decreasing concentrations of compounds are incubated in the presence of hAR extract (Chang et al. P.N.A.S. Vol. 89, pp. […], 1992), hydroxylapatite, and 1 nM ^3H-DHT for one hour at 4° C. Subsequently, the binding reactions are washed three times to completely remove excess unbound ^3H-DHT. hAR bound ^3H-DHT levels are determined in the presence of compounds (i.e. competitive binding) and compared to levels bound when no competitor is present (i.e. maximum binding). Compound binding affinity to the hAR is expressed as the concentration of compound at which one half of the maximum binding is inhibited. Table II below provides the results that were obtained for selected compounds (reported data is the mean of multiple tests as shown below)

[2] = molecular target: T2, androgen receptor in MDA-MB453-MMTV clone 54-19 cells (Homo sapiens, UniProt P10275); test: AR antagonist cell assay (MMTV-luciferase reporter, 100 pM DHT); format: cell-based
T2 sequence (P10275 1-920 Q868H): T1 sequence (P10275 1-920) with Q868H
Method: The compounds ability to antagonize the effects of androgen on the androgen receptor were determined in a whole cell assay as described immediately below.
Experimental Procedure for AR Antagonist Cell Assay
Cell line: MDA-MB453-MMTV clone 54-19. This cell line is a stable transfected cell line with MDA-MB453 cell background (a human breast tumor cell line expressing androgen receptor). A MMTV minimal promoter containing ARE was first cloned in front of a firefly luciferase reporter gene. Then the cascade was cloned into transfection vector pUV120puro. Electroporation method was used for transfecting MDA-MB-453 cell. Puromycin resistant stable cell line was selected. Cell Culture Media and Reagents:
Culture medium: DMEM (high glucose, Gibco cat #: 11960-044), 10% FBS, and 1% L-glutamine
Plating medium: DMEM (phenol red free), 10% charcoal treated HyClone serum, 1% L-glutamine
Assay medium: DMEM (phenol red free), 1% charcoal treated HyClone serum, 1% L-glutamine, and 1% penicillin/streptomycin
3X luciferase buffer: 2% beta-mercaptoethanol, 0.6% ATP, 0.0135% luciferine in cell lysis buffer
• 1. Cells are maintained in culture medium, splitting cells when they reach 80-90% confluence • 2. To test compounds, 10,000 cells/well are plated to opaque 96 cell culture plate in 100 ul/well plating medium, culture for overnight at 37° C. in cell culture incubator • 3. Carefully remove plating medium, then add 80 ul/well of pre-warmed assay medium, add 10 ul/well testing compound (final concentration at) 1000 nM, 200 nM, 40 nM, 8 nM, 1.6 nM, and 0.32 nM), incubate at 37° C. for 30 minutes • 4. Add 10 ul/well freshly prepared DHT (final concentration at 100 pM) to each well, incubate at 37° C. for 17 hr (overnight) • 5. Add 50 ul/well 3X luciferase buffer, incubate at room temperature for 5 minutes, then count on Luminometer
The fold induction over background by 100 pM DHT in the absence of testing compounds is standardized as 100% and experimental result is expressed as percentage of inhibition by testing compounds.
The results are reported as the mean of multiple tests as described below (the numbers of tests are indicated in the footnote). N.D. denotes that the compound was not tested.

spinal BMD = conditions: after 7 years of treatment; cited from earlier work
[3] = MDA-MB453-MMTV clone 54-19, inhibition of 100 pM DHT induced luciferase, 17 hr; mean of multiple tests; read-out: AR Cell IC50
[4] = baculovirus/Sf9 hAR extract, 1 nM 3H-DHT, one hour at 4° C, mean of multiple tests, read-out: AR Binding IC50

| Compound | IC50 [1] [nM] | IC50 [2, 3] [nM] | IC50 [1, 4] [nM] | IC50 ([2]; read-out: AR Cell IC50; MDA-MB453-MMTV clone 54-19, inhibition of 100 pM DHT induced luciferase, 17 hr; mean of multiple tests) [nM] | increase in spinal BMD (spinal BMD) [%] |
| --- | --- | --- | --- | --- | --- |
| C=CCC(CCOc1ccc(C#N)c(C(F)(F)F)c1)Oc1ccc(C#N)c(C(F)(F)F)c1 (stereo not drawn) [Example 17, 4,4′-[Hex-1-ene-4,6-diylbis(oxy)]bis[2-(trifluoromethyl)benzonitrile]] | 47 | > 1000 | – | – | – |
| CC(C)(CCOc1ccc(C#N)c(C(F)(F)F)c1)Oc1ccc(C#N)c(C(F)(F)F)c1 [Example 18, 4,4′-[(3-Methylbutane-1,3-diyl)bis(oxy)]bis[2-(trifluoromethyl)benzonitrile]] | – | > 1000 | 410 | – | – |
| CCCC(Oc1ccc(C#N)c(C(F)(F)F)c1)C(CC)COc1ccc(C#N)c(C(F)(F)F)c1 (stereo not drawn) [Example 19, 4-{[3-(4-Cyanophenoxy)-2-ethylhexyl]oxy}bis[2-(trifluoromethyl)benzonitrile]] | – | > 1000 | 216 | – | – |
| CCCC(CCCOc1ccc(C#N)c(C(F)(F)F)c1)Oc1ccc(C#N)c(C(F)(F)F)c1 (stereo not drawn) [Example 21, 4,4′-[Heptane-1,4-diylbis(oxy)]bis[2-(trifluoromethyl)benzonitrile]] | – | > 1000 | 233 | – | – |
| CC(CCC(C)Oc1ccc(C#N)c(C(F)(F)F)c1)Oc1ccc(C#N)c(C(F)(F)F)c1 (stereo not drawn) [Example 22, 4,4′-[Hexane-2,5-diylbis(oxy)]bis[2-(trifluoromethyl)benzonitrile]] | – | 322 | 293 | – | – |
| CC(CCCCOc1ccc(C#N)c(C(F)(F)F)c1)Oc1ccc(C#N)c(C(F)(F)F)c1 (stereo not drawn) [Example 25, 4,4′-[Hexane-1,5-diylbis(oxy)]bis[2-(trifluoromethyl)benzonitrile]] | – | > 1000 | 159 | – | – |
| CC(CCOc1ccc(C#N)c(C(F)(F)F)c1)CCOc1ccc(C#N)c(C(F)(F)F)c1 [Example 26, 4,4′-[(3-Methylpentane-1,5-diyl)bis(oxy)]bis[2-(trifluoromethyl)benzonitrile]] | – | 212 | 156 | – | – |
| N#Cc1ccc(O[C@H](CO)COc2ccccc2)cc1C(F)(F)F [Example 29, (1R)-4-(1-Hydroxymethyl-2-phenoxy-ethoxy)-2-trifluoromethyl-benzonitrile] | 44 | 117 | – | – | – |
| COC[C@H](COc1ccccc1)Oc1ccc(C#N)c(C(F)(F)F)c1 [Example 30, (1R)-4-(1-Methoxymethyl-2-phenoxy-ethoxy)-2-trifluoromethyl-benzonitrile] | 30 | – | – | 40 | – |
| COC[C@@H](COc1ccccc1)Oc1ccc(C#N)c(C(F)(F)F)c1 [Example 31, (1S)-4-(1-Methoxymethyl-2-phenoxy-ethoxy)-2-trifluoromethyl-benzonitrile] | 46 | 126 | – | – | – |
| NCCCC(O)(P(=O)(O)O)P(=O)(O)O [alendronate] | – | – | – | – | ≤ 11 |
